Measurements reported in patent US8178522B2, “Thiazoles” (Hoffmann-La Roche Inc., priority 2009, dated 2012).

Each molecule was assayed against T1, GABA A α5 (α5β3γ2) (Homo sapiens, UniProt P18507+P31644) (assay: [3H]flumazenil competition binding, human GABA A α5 receptor). Details: human receptor α5β3γ2 transiently transfected in HEK293 cells; competition for [3H]flumazenil 0.5 nM; 1 hour at 4° C.; means of two determinations; read-out: hKi GABA A α5.
T1 construct: expressed in transfected cells; host or cells: HEK293, transiently transfected; membrane preparation
Experimental: Membrane Preparation and Binding Assay
The affinity of compounds at GABA A receptor subtypes was measured by competition for [3H]flumazenil (85 Ci/mmol; Roche) binding to HEK293 cells expressing rat (stably transfected) or human (transiently transfected) receptors of compositional α1β3γ2, α2β3γ2, α3β3γ2 and α5β3γ2.
Cell pellets were suspended in Krebs-tris buffer (4.8 mM KCl, 1.2 mM CaCl2, 1.2 mM MgCl2, 120 mM NaCl, 15 mM Tris; pH 7.5; binding assay buffer), homogenized by polytron for ca. 20 sec on ice and centrifuged for 60 min at 4° C. (50000 g; Sorvall, rotor: SM24=20000 rpm). The cell pellets were re-suspended in Krebs-tris buffer and homogenized by polytron for ca. 15 sec on ice. Protein was measured (Bradford method, Bio-Rad) and aliquots of 1 mL were prepared and stored at −80° C.
Assays were incubated to equilibrium for 1 hour at 4° C. and harvested onto GF/C uni-filters (Packard) by filtration using a Packard harvester and washing with ice-cold wash buffer (50 mM Tris; pH 7.5). After drying, filter-retained radioactivity was detected by liquid scintillation counting. Ki values were calculated using Excel-Fit (Microsoft) and are the means of two determinations.
Work on `Cc1nc(CCc2c(-c3ccccn3)noc2C)sc1C(=O)NC(C)C` [Example 10, 4-Methyl-2-[2-(5-methyl-3-pyridin-2-yl-isoxazol-4-yl)-ethyl]-thiazole-5-carboxylic acid isopropylamide] yielded a Ki of 4.3 nM. Work on `Cc1nc(CCc2c(-c3ccc(F)cn3)noc2C)sc1C(=O)NC1CCOCC1` [Example 31, 2-{2-[3-(5-Fluoro-pyridin-2-yl)-5-methyl-isoxazol-4-yl]ethyl}-4-methyl-thiazole-5-carboxylic acid (tetrahydro-pyran-4-yl)-amide] yielded a Ki of 5.2 nM. `CCCCc1noc(C)c1/C=C/c1ncc(C(=O)NC(C)C)s1` [Example 124, 2-[(E)-2-(3-Butyl-5-methyl-isoxazol-4-yl)-vinyl]-thiazole-5-carboxylic acid isoprop-ylamide] showed a Ki of 5.5 nM. `CCCCc1noc(C)c1/C=C/c1nc(C)c(C(=O)NC2CCOC2)s1` (centres unmarked) [Example 94, 2-[(E)-2-(3-Butyl-5-methyl-isoxazol-4-yl)-vinyl]-4-methyl-thiazole-5-carboxylic acid (tetrahydro-furan-3-yl)-amide] showed a Ki of 1.2 nM. With `CNC(=O)c1sc(CCc2c(-c3ccccn3)noc2C)nc1C` [Example 16, 4-Methyl-2-[2-(5-methyl-3-pyridin-2-yl-isoxazol-4-yl)-ethyl]-thiazole-5-carboxylic acid methylamide] the Ki was 21.3 nM. For `CNC(=O)c1cnc(/C=C/c2c(-c3ccc(F)cn3)noc2C)s1` [Example 88, 2-{(E)-2-[3-(5-Fluoro-pyridin-2-yl)-5-methyl-isoxazol-4-yl]-vinyl}-thiazole-5-carboxylic acid methylamide], the Ki was 6.2 nM. `CCOC(=O)c1cnc(OCc2c(-c3ccccc3)noc2C)s1` [Example 126, 2-(5-Methyl-3-phenyl-isoxazol-4-ylmethoxy)-thiazole-5-carboxylic acid ethyl ester] gave a Ki of 16.8 nM. `CCCCc1noc(C)c1/C=C/c1nc(C)c(C(=O)NCCO)s1` [Example 95, 2-[(E)-2-(3-Butyl-5-methyl-isoxazol-4-yl)-vinyl]-4-methyl-thiazole-5-carboxylic acid (2-hydroxy-ethyl)-amide] gave a Ki of 2.2 nM. `CCCCc1noc(C)c1/C=C/c1nc(C)c(C(=O)O)s1` [Example 99, 2-[(E)-2-(3-Butyl-5-methyl-isoxazol-4-yl)-vinyl]-4-methyl-thiazole-5-carboxylic acid] gave a Ki of 27.6 nM. In the case of `CCCCc1noc(C)c1/C=C/c1nc(C)c(C(=O)NC2CC2)s1` [Example 113, 2-[(E)-2-(3-Butyl-5-methyl-isoxazol-4-yl)-vinyl]-4-methyl-thiazole-5-carboxylic acid cyclopropylamide], the Ki is reported as 5.1 nM. Molecule `Cc1onc(-c2ccccc2)c1COc1ncc(C(=O)NC(C)(C)CO)s1` [Example 131, 2-(5-Methyl-3-phenyl-isoxazol-4-ylmethoxy)-thiazole-5-carboxylic acid (2-hydroxy-1,1-dimethyl-ethyl)-amide] has a Ki of 12.7 nM. `Cc1nc(/C=C/c2c(-c3ccc(F)cn3)noc2C)sc1C(=O)NC(C)(C)CO` [Example 74, 2-{(E)-2-[3-(5-Fluoro-pyridin-2-yl)-5-methyl-isoxazol-4-yl]-vinyl}-4-methyl-thiazole-5-carboxylic acid (2-hydroxy-1,1-dimethyl-ethyl)-amide] showed a Ki of 8.4 nM. In the case of `CCCCc1noc(C)c1/C=C/c1nc(C)c(C(=O)N[C@H](C)C(F)(F)F)s1` [Example 107, 2-[(E)-2-(3-Butyl-5-methyl-isoxazol-4-yl)-vinyl]-4-methyl-thiazole-5-carboxylic acid ((R)-2,2,2-trifluoro-1-methyl-ethyl)-amide], the Ki is reported as 2.6 nM. For `CCCCc1noc(C)c1/C=C/c1nc(C)c(C(=O)NC(C)CO)s1` (racemic) [Example 97, Rac-2-[(E)-2-(3-Butyl-5-methyl-isoxazol-4-yl)-vinyl]-4-methyl-thiazole-5-carboxylic acid (2-hydroxy-1-methyl-ethyl)-amide], the Ki was 4.7 nM. `Cc1nc(/C=C/c2c(-c3ccc(F)cn3)noc2C)sc1C(=O)NCC1CC1` [Example 75, 2-{(E)-2-[3-(5-Fluoro-pyridin-2-yl)-5-methyl-isoxazol-4-yl]-vinyl}-4-methyl-thiazole-5-carboxylic acid cyclopropylmethyl-amide] was tested, and the Ki was 1.8 nM. With `CCCCc1noc(C)c1/C=C/c1nc(C)c(C(=O)NC2CCCC2O)s1` (stereo in doubt) [Example 114, 2-[(E)-2-(3-Butyl-5-methyl-isoxazol-4-yl)-vinyl]-4-methyl-thiazole-5-carboxylic acid ((1R,2R)-2-hydroxy-cyclopentyl)-amide] the Ki was 6.4 nM. `CCCCc1noc(C)c1/C=C/c1nc(C)c(C(=O)N[C@H]2CCC[C@@H]2O)s1` [Example 111, 2-[(E)-2-(3-Butyl-5-methyl-isoxazol-4-yl)-vinyl]-4-methyl-thiazole-5-carboxylic acid ((1S,2S)-2-hydroxy-cyclopentyl)-amide] was tested, and the Ki was 5.5 nM. `Cc1nc(CCc2c(-c3ccccn3)noc2C)sc1C(=O)N1CCSCC1` [Example 17, {4-Methyl-2-[2-(5-methyl-3-pyridin-2-yl-isoxazol-4-yl)-ethyl]-thiazol-5-yl}-thiomorpholin-4-yl-methanone] gave a Ki of 42.8 nM. `CCCCc1noc(C)c1/C=C/c1nc(C)c(C(=O)NC(C)(C)CO)s1` [Example 117, 2-[(E)-2-(3-Butyl-5-methyl-isoxazol-4-yl)-vinyl]-4-methyl-thiazole-5-carboxylic acid (2-hydroxy-1,1-dimethyl-ethyl)-amide] was tested, and the Ki was 21 nM. Work on `CNC(=O)c1cnc(CCc2c(-c3ccc(F)cn3)noc2C)s1` [Example 47, 2-{2-[3-(5-Fluoro-pyridin-2-yl)-5-methyl-isoxazol-4-yl]-ethyl}-thiazole-5-carboxylic acid methylamide] yielded a Ki of 26.3 nM. Molecule `Cc1nc(CCc2c(-c3ccc(F)cn3)noc2C)sc1C(=O)NCC(F)(F)F` [Example 35, 2-{2-[3-(5-Fluoro-pyridin-2-yl)-5-methyl-isoxazol-4-yl]ethyl}-4-methyl-thiazole-5-carboxylic acid (2,2,2-trifluoro-ethyl)-amide] has a Ki of 6.6 nM. For `Cc1nc(/C=C/c2conc2-c2ccc(F)cn2)sc1C(=O)NCC1CC1` [Example 92, 2-{(E)-2-[3-(5-Fluoro-pyridin-2-yl)-isoxazol-4-yl]-vinyl}-4-methyl-thiazole-5-carboxylic acid cyclopropylmethyl-amide], the Ki was 40.4 nM. For `Cc1nc(CCc2c(-c3ccc(F)cn3)noc2C)sc1C(=O)NCC1CC1` [Example 34, 2-{2-[3-(5-Fluoro-pyridin-2-yl)-5-methyl-isoxazol-4-yl]-ethyl}-4-methyl-thiazole-5-carboxylic acid cyclopropylmethyl-amide], the Ki was 16 nM. `Cc1nc(/C=C/c2conc2-c2ccc(F)cn2)sc1C(=O)NC1CC1` [Example 91, 2-{(E)-2-[3-(5-Fluoro-pyridin-2-yl)-isoxazol-4-yl]vinyl}-4-methyl-thiazole-5-carboxylic acid cyclopropylamide] gave a Ki of 35.3 nM. With `Cc1nc(CCc2c(-c3ccc(F)cn3)noc2C)sc1C(=O)NC(C)C` [Example 32, 2-{2-[3-(5-Fluoro-pyridin-2-yl)-5-methyl-isoxazol-4-yl]-ethyl}-4-methyl-thiazole-5-carboxylic acid isopropylamide] the Ki was 7 nM. `COC(=O)c1sc(CCc2c(-c3ccccn3)noc2C)nc1C` [Example 8, 4-Methyl-2-[2-(5-methyl-3-pyridin-2-yl-isoxazol-4-yl)-ethyl]-thiazole-5-carboxylic acid methyl ester] gave a Ki of 20.3 nM. `Cc1onc(-c2ccccc2)c1/C=C/c1ncc(C(=O)NC2CCOCC2)s1` [Example 63, 2-[(E)-2-(5-Methyl-3-phenyl-isoxazol-4-yl)-vinyl]-thiazole-5-carboxylic acid (tetra-hydro-pyran-4-yl)-amide] was tested, and the Ki was 1.2 nM. With `CCCCc1noc(C)c1CCc1ncc(C(=O)NC2CCOCC2)s1` [Example 59, 2-[2-(3-Butyl-5-methyl-isoxazol-4-yl)-ethyl]-thiazole-5-carboxylic acid (tetrahydro-pyran-4-yl)-amide] the Ki was 32.5 nM. Molecule `Cc1onc(-c2ccccn2)c1CCc1ncc(C(N)=O)s1` [Example 25, 2-[2-(5-Methyl-3-pyridin-2-yl-isoxazol-4-yl)-ethyl]-thiazole-5-carboxylic acid amide] has a Ki of 33.6 nM. In the case of `CCCCc1noc(C)c1/C=C/c1nc(C)c(C(=O)NCC(F)(F)F)s1` [Example 119, 2-[(E)-2-(3-Butyl-5-methyl-isoxazol-4-yl)-vinyl]-4-methyl-thiazole-5-carboxylic acid (2,2,2-trifluoro-ethyl)-amide], the Ki is reported as 2.4 nM. `Cc1nc(CCc2c(-c3ccccc3)noc2C)sc1C(=O)NC1CCOC1` (stereo in doubt) [Example 2, (S)-4-Methyl-2-[2-(5-methyl-3-phenyl-isoxazol-4-yl)-ethyl]-thiazole-5-carboxylic acid (tetrahydro-furan-3-yl)-amide] gave a Ki of 10.9 nM. For `Cc1nc(CCc2c(-c3ccc(F)cn3)noc2C)sc1C(=O)NC1CC1` [Example 33, 2-{2-[3-(5-Fluoro-pyridin-2-yl)-5-methyl-isoxazol-4-yl]-ethyl}-4-methyl-thiazole-5-carboxylic acid cyclopropylamide], the Ki was 9 nM.
